Values of other authors, collected in PMC3826776 (Bioorganic & medicinal chemistry letters, 2011).

Tests used:
mGluR5 [1] = details: read-out: IC50 (literature values); literature value
mGluR5 [2] = details: read-out: Ki (literature values); literature value
[3] = tested on: brain p-glycoprotein efflux pump (P-gp); details: stated without reference

IC50 (mGluR5 [1]) [nM]	Ki (mGluR5 [2]) [nM]	P-gp substrate [3]	Structure (SMILES)
2	12	not P-gp substrates	Cc1cccc(C#Cc2ccccc2)n1 [MPEP, 2-methyl-6-(phenylethynyl)-pyridine]
–	–	not P-gp substrates	Cc1nc(C#Cc2cccnc2)cs1 [MTEP, 3-[(2-methyl-1,3-thiazol-4yl)-ethynyl]-pyridine]
